Our source for the IC50, tumor growth inhibition and PK in plasma values is patent US20250206717A1, “COMPOUND HAVING ANTI-TUMOR ACTIVITY AND USE THEREOF” (Innovstone Therapeutics Limited, priority 2021, published 2025).

Structures can show the parent of a compound that is named as a salt.

In general, IC50 refers to the concentration at which inhibition is half-maximal.

In the first data set the target is PRMT5 (Homo sapiens (Human), UniProt O14744). The data set is described as follows: Inhibitory activity against PRMT5 enzyme activity ([3H]-SAM FlashPlate assay). Type of data set: biochemical. As to conditions: PRMT5 5 nM, [3H]-SAM 0.3 μM, polypeptide substrate 100 nM; read-out: measured enzyme inhibitory IC50 value (PRMT5 enzyme activity).
PRMT5, sequence (O14744 2-637): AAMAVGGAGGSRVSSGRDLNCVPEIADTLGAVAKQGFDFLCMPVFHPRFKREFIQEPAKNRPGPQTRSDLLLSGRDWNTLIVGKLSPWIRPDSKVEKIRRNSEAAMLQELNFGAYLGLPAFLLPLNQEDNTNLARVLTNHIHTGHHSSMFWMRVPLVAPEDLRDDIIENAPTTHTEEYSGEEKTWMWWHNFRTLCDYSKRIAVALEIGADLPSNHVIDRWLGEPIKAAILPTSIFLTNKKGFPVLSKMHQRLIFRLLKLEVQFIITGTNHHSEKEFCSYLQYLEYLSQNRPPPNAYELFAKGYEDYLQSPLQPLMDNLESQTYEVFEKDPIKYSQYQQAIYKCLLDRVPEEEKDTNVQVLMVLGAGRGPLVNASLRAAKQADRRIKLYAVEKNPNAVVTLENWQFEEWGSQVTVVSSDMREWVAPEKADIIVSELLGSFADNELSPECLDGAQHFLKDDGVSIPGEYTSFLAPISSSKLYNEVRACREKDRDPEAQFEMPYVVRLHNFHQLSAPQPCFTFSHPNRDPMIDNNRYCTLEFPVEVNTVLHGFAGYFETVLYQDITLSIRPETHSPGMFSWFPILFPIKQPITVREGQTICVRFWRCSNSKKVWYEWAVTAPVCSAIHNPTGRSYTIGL
PRMT5, sequence (Q9BQA1 2-342 partner): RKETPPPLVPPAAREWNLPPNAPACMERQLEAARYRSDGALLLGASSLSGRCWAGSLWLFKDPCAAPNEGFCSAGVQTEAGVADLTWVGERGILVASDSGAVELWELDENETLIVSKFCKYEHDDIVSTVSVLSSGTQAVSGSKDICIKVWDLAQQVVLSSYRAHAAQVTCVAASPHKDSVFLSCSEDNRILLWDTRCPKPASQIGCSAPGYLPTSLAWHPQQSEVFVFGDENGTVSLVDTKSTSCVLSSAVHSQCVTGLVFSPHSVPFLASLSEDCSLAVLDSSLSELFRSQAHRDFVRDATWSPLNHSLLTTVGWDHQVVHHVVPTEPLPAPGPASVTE
Take `CC(=O)N1CCC(Oc2cc(C(=O)N3CC[C@H](N4CCc5ccccc5C4)[C@@H](O)C3)ncn2)CC1` (relative stereo) [Example 1, trans-1-(4-((6-(4-(3,4-dihydroisoquinoline-2(1H)-yl)-3-hydroxypiperidine-1-carbonyl)pyrimidine-4-yl)oxy)piperidine-1-yl)ethane-1-one]: the IC50 is 65 nM.
On to `CC(=O)N1CCC(Nc2cc(C(=O)N3CC[C@@H](N4CCc5ccccc5C4)[C@H](O)C3)nc(C)n2)CC1` [Control Example 2, 1-(4-((6-((3R,4R)-4-(3,4-dihydroisoquinoline-2(1H)-yl)-3-hydroxypiperidine-1-carbonyl)-2-methylpyrimidine-4-yl)amino)piperidine-1-yl)ethanone], for which the IC50 was found to be 36 nM.
For the compound `CC(=O)N1CCC(Nc2cc(C(=O)N3CC[C@H](N4CCc5ccccc5C4)[C@@H](O)C3)nc(-c3ccccc3F)n2)CC1` [Example 12], the IC50 is 35.2 nM.
As for `O=C(c1cc(NC2CCCCC2)nc(-c2ccccc2)n1)N1CC[C@@H](N2CCc3ccccc3C2)[C@H](O)C1` [Example 37], the IC50 was determined as 99.8 nM.
Consider `C=Cc1nc(NC2CCN(C(C)=O)CC2)cc(C(=O)N2CC[C@@H](N3CCc4ccccc4C3)[C@H](O)C2)n1` [Example 46], for which the IC50 came to 29.1 nM.
Same read-out and setting: the result for `CC(=O)N1CCC(Nc2cc(C(=O)N3CC[C@@H](N4CCc5ccccc5C4)[C@H](O)C3)nc(C(=O)N(C)C)n2)CC1` [Example 59] reads 107 nM; that for `CC(=O)N1CCC(Nc2nc(C(=O)N3CC[C@@H](N4CCc5ccccc5C4)[C@H](O)C3)nc(-c3ccccc3)n2)CC1` [Example 70], 66.4 nM.
On the same count and under the same terms, the result for `CC(=O)N1CCC(Nc2cc(C(=O)N3CC[C@H](N4CCc5ccccc5C4)[C@@H](O)C3)nc(-n3ccnc3)n2)CC1` [Example 73] reads 110 nM; that for `O=C(c1ccc(C(F)(F)F)cc1)N1CCC(Nc2cc(C(=O)N3CC[C@@H](N4CCc5ccccc5C4)[C@H](O)C3)ncn2)CC1` [Example 153], 6.97 nM.
On the same count and under the same terms, the result for `O=C(c1cccc(F)c1)N1CCC(Nc2cc(C(=O)N3CC[C@@H](N4CCc5ccccc5C4)[C@H](O)C3)ncn2)CC1` [Example 172] reads 20.5 nM.
Consider `O=C(c1ccccn1)N1CCC(Nc2cc(C(=O)N3CC[C@@H](N4CCc5ccccc5C4)[C@H](O)C3)ncn2)CC1` [Example 173], for which the IC50 was determined as 51.2 nM.
The same measure, in the same setting: to `Cn1cc(C(=O)N2CCC(Nc3cc(C(=O)N4CC[C@@H](N5CCc6ccccc6C5)[C@H](O)C4)nc(OC4CCCC4)n3)CC2)cn1` [Example 193] belongs 6.4 nM; to `O=C(c1cc(NC2CCN(C(=O)c3cccs3)CC2)nc(OC2CCCC2)n1)N1CC[C@@H](N2CCc3ccccc3C2)[C@H](O)C1` [Example 194], 4.5 nM.
On to `CCC(CC)Oc1nc(NC2CCN(C(=O)c3ccccc3)CC2)cc(C(=O)N2CC[C@@H](N3CCc4ccccc4C3)[C@H](O)C2)n1` [Example 202], for which the IC50 was 5.2 nM.
As to `CC(C)Oc1nc(NC2CCN(C(=O)c3cccs3)CC2)cc(C(=O)N2CC[C@@H](N3CCc4ccccc4C3)[C@H](O)C2)n1` [Example 207], the IC50 amounted to 3.9 nM.
Same read-out and setting: the result for `CC(C)COc1nc(NC2CCN(C(=O)c3cnn(C)c3)CC2)cc(C(=O)N2CC[C@@H](N3CCc4ccccc4C3)[C@H](O)C2)n1` [Example 213] reads 4.5 nM; that for `Cc1ccc(C(=O)N2CCC(Nc3cc(C(=O)N4CC[C@@H](N5CCc6ccccc6C5)[C@H](O)C4)nc(N4CCCC4)n3)CC2)cc1` [Example 315], 4.7 nM; that for `COc1nc(NC2CCN(C(=O)c3ccc(C)cc3)CC2)cc(C(=O)N2CC[C@@H](N3CCc4ccccc4C3)[C@H](O)C2)n1` [Example 392, ((3R,4R)-4-(3,4-dihydroisoquinoline-2(1H)-yl)-3-hydroxypiperidine-1-yl)(2-methoxy-6-((1-(4-methylbenzoyl)piperidine-4-yl)amino)pyrimidine-4-yl)methanone hydrochloride], 2.8 nM.
Same read-out and setting: the result for `[2H]C1([2H])CN([C@@H]2CCN(C(=O)c3cc(NC4CCN(C(=O)c5ccccc5)CC4)nc(OC(C)C)n3)C[C@H]2O)Cc2ccccc21` [Example 401, (6-((1-(benzoyl)piperidine-4-yl)amino)-2-isopropoxypyrimidine-4-yl)((3R,4R)-4-(3,4-dihydroisoquinoline-2(1H)-yl-4,4-d2)-3-hydroxypiperidine-1-1)methanone] reads 7.9 nM.

The subject of the next data set is human B-cell non-Hodgkin lymphoma Z-138 cells. The data set is described as follows: Growth inhibitory activity on Z-138 cells (CellTiter-Glo, 5 days). The format is cell-based. The note with it: 5 days (120H), read-out: measured cell growth inhibitory IC50 value (Z-138 cell growth). The method, then: Vi-Cell XR cell counter, Beckmancoulter.
Cells were revived and cultured in an incubator at 37° C./5% CO2 according to the above-mentioned culturing conditions.
Periodical passaging was performed, and cell lines with good growth status in about two generations were taken for plating.
I. Cells were taken from the incubator. The cell suspension was transferred to a 50 mL centrifuge tube, and centrifuged at
800-1000 rpm for 3-5 minutes. The supernatant was discarded. An appropriate volume of culture medium was added to the centrifuge tube and gently beated to resuspend the cells evenly. Cells were counted using a Vi-Cell XR cell counter.
II. According to the measured cell density, the cell suspension was adjusted to an appropriate concentration.
III. The cell suspension was added into the 384-well plate, 40 μL/well, containing 700 cells/well, and an equal volume of culture medium without cells was added to the blank control well.
I. A compound was dissolved in 100% DMSO to formulate a 10 mM stock solution.
II. The stock solution with a concentration of 10 mM was taken, diluted with DMSO to a 2 mM solution, which was used as the starting concentration to perform a 4× gradient dilution with DMSO for 9 points.
III. 200 nL of the above compound solutions in gradient concentrations were taken and added to each well respectively.
To the blank control well and the DMSO control well were respectively added 200 nL DMSO solutions, and the final concentration of DMSO was 0.5%.
IV. The cell plate was incubated in a carbon dioxide incubator for 5 days (120H).
I. CellTiter-Glo buffer was thawed and allowed to come to room temperature.
II. A lyophilized CellTiter-Glo substrate was allowed to come to room temperature.
III. CellTiter-Glo buffer was added to a bottle of CellTiter-Glo substrate to dissolve the substrate to formulate a CellTiter-Glo working solution.
IV. The working solution was slowly vortexed to fully dissolve the contents.
V. The cell culture plate was taken and allowed to equilibrate to room temperature.
VI. […] of a mixed CellTiter Glo reagent was added to each well, oscillated for 10 minutes in the dark, and incubated for 10 minutes.
The inhibition rates (IRs) of the detected compounds were calculated according to the following formula:
IR (%)=(1−(RLUcompound−RLUblank control)/(RLUDMSO−RLUblank control)*100%,
XLFit was used to plot the efficacy inhibition rate curve, and the IC50 value was calculated using the following 4-parameter model: [fit=(A±((B−A)/(1+((C/x)^D))))].
On the technique in general: ATP-based viability assays read luminescence as a measure of living cells.
In the case of `COCCCCNc1cc(C(=O)N2CC[C@@H](N3CCc4ccccc4C3)[C@H](O)C2)nc(-c2ccccc2)n1` (stereo in doubt) [Example 45], the IC50 amounted to 1320 nM.
Regarding `CC(=O)N1CC(Nc2cc(C(=O)N3CC[C@@H](N4CCc5ccccc5C4)[C@H](O)C3)nc(-c3ccccc3)n2)C1` [Example 39], the IC50 amounted to 135 nM.
For `CC(=O)N1CCC(Nc2cc(C(=O)N3CC[C@@H](N4CCc5ccccc5C4)[C@H](O)C3)nc(-c3cc4ccccc4s3)n2)CC1` [Example 66], the IC50 amounted to 1360 nM.
The same measure, in the same setting: the result for `O=C(c1ccc(C(F)(F)F)cc1)N1CCC(Nc2cc(C(=O)N3CC[C@@H](N4CCc5ccccc5C4)[C@H](O)C3)ncn2)CC1` [Example 153] reads 13.8 nM; that for `O=C(c1ccccc1)N1CCC(Nc2cc(C(=O)N3CC[C@@H](N4CCc5ccccc5C4)[C@H](O)C3)ncn2)CC1` [Example 158], 19 nM; that for `O=C(c1ccncc1)N1CCC(Nc2cc(C(=O)N3CC[C@@H](N4CCc5ccccc5C4)[C@H](O)C3)ncn2)CC1` [Example 165], 33.7 nM.
Turning to `O=C(c1ccncn1)N1CCC(Nc2cc(C(=O)N3CC[C@@H](N4CCc5ccccc5C4)[C@H](O)C3)ncn2)CC1` [Example 170], the IC50 was 62.8 nM.
For the compound `Cc1ccc(C(=O)N2CCC(Nc3cc(C(=O)N4CC[C@@H](N5CCc6ccccc6C5)[C@H](O)C4)ncn3)CC2)cc1` [Example 171], the IC50 amounted to 11.5 nM.
On the same count and under the same terms, to `O=C(c1cc(NC2CCN(C(=O)c3cccs3)CC2)nc(OC2CCCC2)n1)N1CC[C@@H](N2CCc3ccccc3C2)[C@H](O)C1` [Example 194] belongs 11 nM; to `CCC(CC)Oc1nc(NC2CCN(C(=O)c3ccccc3)CC2)cc(C(=O)N2CC[C@@H](N3CCc4ccccc4C3)[C@H](O)C2)n1` [Example 202], 8 nM; to `CC(C)Oc1nc(NC2CCN(C(=O)c3cccs3)CC2)cc(C(=O)N2CC[C@@H](N3CCc4ccccc4C3)[C@H](O)C2)n1` [Example 207], 12 nM.
Same read-out and setting: to `CC(C)COc1nc(NC2CCN(C(=O)c3ccn(C)n3)CC2)cc(C(=O)N2CC[C@@H](N3CCc4ccccc4C3)[C@H](O)C2)n1` [Example 212] belongs 22.2 nM.
The same measure, in the same setting: the result for `Cn1cc(N2CCC(Nc3cc(C(=O)N4CC[C@@H](N5CCc6ccccc6C5)[C@H](O)C4)nc(OC4CCCC4)n3)CC2)cn1` [Example 215] reads 157 nM.
With `CC(C)Oc1nc(NC2CCN(C(=O)c3ccn(C)n3)CC2)cc(C(=O)N2CC[C@@H](N3CCc4ccccc4C3)[C@H](O)C2)n1` [Example 217], the 50% inhibitory concentration (IC50) was found to be 60.5 nM.
For `CCC(CC)Oc1nc(NC2CCN(C(=O)c3cnn(C)c3)CC2)cc(C(=O)N2CC[C@@H](N3CCc4ccccc4C3)[C@H](O)C2)n1` [Example 243], the IC50 was found to be 5.8 nM.
Same read-out and setting: to `Cn1cc(C(=O)N2CCC(Nc3cc(C(=O)N4CC[C@@H](N5CCc6ccccc6C5)[C@H](O)C4)nc(SC4CCCC4)n3)CC2)cn1` [Example 253] belongs 7.4 nM; to `CN(C)CCCOc1nc(NC2COC2)cc(C(=O)N2CC[C@@H](N3CCc4ccccc4C3)[C@H](O)C2)n1` [Example 259], 1190 nM.
On the same count and under the same terms, the result for `CC(=O)N1CCC(Nc2cc(OC3CCCC3)nc(C(=O)N3CC[C@@H](N4CCc5ccccc5C4)[C@H](O)C3)c2)CC1` [Example 276] reads 111 nM; that for `CC(=O)N1CCC(Nc2cc(C(=O)N3CC[C@@H](N4CCc5ccccc5C4)[C@H](O)C3)nc(Nc3ccccc3)n2)CC1` [Example 339], 65.3 nM; that for `COc1nc(NC2CCN(C(=O)c3ccc(C)cc3)CC2)cc(C(=O)N2CC[C@@H](N3CCc4ccccc4C3)[C@H](O)C2)n1` [Example 392, ((3R,4R)-4-(3,4-dihydroisoquinoline-2(1H)-yl)-3-hydroxypiperidine-1-yl)(2-methoxy-6-((1-(4-methylbenzoyl)piperidine-4-yl)amino)pyrimidine-4-yl)methanone hydrochloride], 12.3 nM.
As for `[2H]C1([2H])CN([C@@H]2CCN(C(=O)c3cc(NC4CCN(C(=O)c5ccccc5)CC4)nc(OC(C)C)n3)C[C@H]2O)Cc2ccccc21` [Example 401, (6-((1-(benzoyl)piperidine-4-yl)amino)-2-isopropoxypyrimidine-4-yl)((3R,4R)-4-(3,4-dihydroisoquinoline-2(1H)-yl-4,4-d2)-3-hydroxypiperidine-1-1)methanone], the IC50 stood at 16 nM.

The test system of another data set is Xenograft models of small cell lung cancer (SCLC), non-small cell lung cancer (NSCLC), acute myeloid leukemia (AML) and non-Hodgkin's lymphoma.
Assay: not given
The note with it: cited from earlier work.
On to `Nc1nc2cc(CC[C@H]3C[C@@H](n4ccc5c(N)ncnc54)[C@H](O)[C@@H]3O)ccc2cc1Br` [JNJ-64619178], for which the tumor growth inhibition result is “up to 99%”.

System in a further data set: not given
Assay: not given
The note with it: Phase I, adult patients with solid tumors; cited from earlier work.
On to `CC(=O)N1CCC(Nc2cc(C(=O)NC[C@H](O)CN3CCc4ccccc4C3)ncn2)CC1` [GSK3326595], for which the PK in plasma result is “dose-dependent”.
